pIC50: −log10 of the molar value. Active and inactive are the calls of the source. No cut-off for these calls is given here.
Tests used:
Mus musculus [1] = assay: Anti-pulmonary fibrosis activity in bleomycin-induced C57BL/6 mouse model of pulmonary fibrosis assessed as decrease in inflammatory cell infiltration in lung at 50 to 100 mg/kg, ip for 3 weeks by H and E staining based fluorescence microscopic analysis; type: functional, organism-based; conditions: dose 50-100 mg/kg
[2] = target: T1, Protein deacetylase HDAC6 (Homo sapiens) (UniProt Q9UBN7); assay: Inhibition of HDAC6 in TGF-beta1-induced HELF cells by fluorescence based microplate reader analysis; type: cell-based; conditions: dose 2.5-10 µM
T1 sequence (whole entry): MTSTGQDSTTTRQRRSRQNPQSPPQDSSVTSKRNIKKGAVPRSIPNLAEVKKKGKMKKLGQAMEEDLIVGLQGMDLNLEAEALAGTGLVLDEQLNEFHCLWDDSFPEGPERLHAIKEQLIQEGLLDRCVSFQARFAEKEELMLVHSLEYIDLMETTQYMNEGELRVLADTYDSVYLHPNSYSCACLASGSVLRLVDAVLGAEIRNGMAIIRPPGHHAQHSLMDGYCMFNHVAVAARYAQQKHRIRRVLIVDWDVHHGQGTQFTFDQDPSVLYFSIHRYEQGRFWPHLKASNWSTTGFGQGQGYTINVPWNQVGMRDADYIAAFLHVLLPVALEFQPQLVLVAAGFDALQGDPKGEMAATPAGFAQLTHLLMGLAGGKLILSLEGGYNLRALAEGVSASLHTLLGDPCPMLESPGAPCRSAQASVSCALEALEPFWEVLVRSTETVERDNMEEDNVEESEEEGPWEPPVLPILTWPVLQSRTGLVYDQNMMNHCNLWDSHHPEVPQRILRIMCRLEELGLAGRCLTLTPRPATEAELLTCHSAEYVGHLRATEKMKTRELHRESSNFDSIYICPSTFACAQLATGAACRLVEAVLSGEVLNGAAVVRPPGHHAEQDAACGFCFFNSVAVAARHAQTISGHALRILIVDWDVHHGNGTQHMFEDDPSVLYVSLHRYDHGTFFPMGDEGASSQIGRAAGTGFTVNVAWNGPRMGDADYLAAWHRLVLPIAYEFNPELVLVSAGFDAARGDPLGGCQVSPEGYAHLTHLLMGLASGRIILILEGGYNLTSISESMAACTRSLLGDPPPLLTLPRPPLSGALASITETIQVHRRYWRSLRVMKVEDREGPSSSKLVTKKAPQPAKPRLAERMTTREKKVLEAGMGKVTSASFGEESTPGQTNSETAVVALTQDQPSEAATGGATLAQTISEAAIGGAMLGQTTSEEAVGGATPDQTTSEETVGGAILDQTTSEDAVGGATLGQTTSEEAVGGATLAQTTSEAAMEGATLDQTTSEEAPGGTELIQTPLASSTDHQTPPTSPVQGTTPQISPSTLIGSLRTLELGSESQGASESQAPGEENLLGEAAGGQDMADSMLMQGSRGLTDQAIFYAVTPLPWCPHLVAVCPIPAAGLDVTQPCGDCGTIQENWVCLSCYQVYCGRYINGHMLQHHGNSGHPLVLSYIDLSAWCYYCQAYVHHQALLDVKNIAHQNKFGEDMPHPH

Mus musculus [3] = assay: Anti-pulmonary fibrosis activity in bleomycin-induced C57BL/6 mouse model of pulmonary fibrosis assessed as decrease in fibrosis scars in lung at 50 to 100 mg/kg, ip for 3 weeks by H and E staining based fluorescence microscopic analysis; type: functional, organism-based; conditions: dose 50-100 mg/kg
Mus musculus [4] = assay: Anti-pulmonary fibrosis activity in bleomycin-induced C57BL/6 mouse model of pulmonary fibrosis assessed as decrease in disturbance of alveolar structure in lung at 50 to 100 mg/kg, ip for 3 weeks by H and E staining based fluorescence microscopic analysis; type: functional, organism-based; conditions: dose 50-100 mg/kg
[5] = target: T2, TGF-beta receptor type-1 (Homo sapiens) (UniProt P36897); assay: Inhibition of TGF-beta1-induced TGFbetaR1 protein phosphorylation level in HELF cells incubated for 48 hrs by Western blot analysis; type: cell-based; conditions: dose 2.5-10 µM
T2 sequence (whole entry): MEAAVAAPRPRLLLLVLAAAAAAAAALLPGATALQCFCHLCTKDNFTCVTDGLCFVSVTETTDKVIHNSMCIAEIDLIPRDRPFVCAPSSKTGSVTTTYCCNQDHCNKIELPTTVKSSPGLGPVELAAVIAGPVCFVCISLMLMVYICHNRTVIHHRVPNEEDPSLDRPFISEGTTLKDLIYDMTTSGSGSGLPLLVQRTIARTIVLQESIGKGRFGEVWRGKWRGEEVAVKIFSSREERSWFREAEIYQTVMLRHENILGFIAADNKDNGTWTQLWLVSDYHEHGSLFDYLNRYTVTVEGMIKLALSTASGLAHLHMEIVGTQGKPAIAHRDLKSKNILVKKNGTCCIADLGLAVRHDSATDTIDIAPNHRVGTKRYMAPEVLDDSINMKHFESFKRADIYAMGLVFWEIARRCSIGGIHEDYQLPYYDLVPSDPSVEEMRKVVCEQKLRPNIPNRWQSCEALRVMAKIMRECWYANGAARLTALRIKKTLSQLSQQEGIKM

HELF = assay: Antifibrotic activity against TGF-beta1-induced HELF cells assessed as reduction in viability after 48 hrs by MTT assay; type: functional, cell-based; conditions: Homo sapiens, dose 2.5-10 µM
[6] = target: T1, Protein deacetylase HDAC6 (Homo sapiens); assay: Inhibition of HDAC6 in TGF-beta1-induced HELF cells assessed as upregulation of acetylated alpha-tubulin level by Western blot analysis; type: cell-based; conditions: dose 2.5-10 µM
[7] = Intrinsic clearance in human liver microsomes at 100 uM incubated upto 60 mins by LC-MS/MS analysis; type: ADME, Microsome; conditions: read-out: CLH
[8] = target: T3, Protein deacetylase HDAC6 (Homo sapiens, UniProt Q9UBN7); assay: Inhibition of recombinant human full length HDAC6 using Boc-Lys (Ac)-AMC as substrate incubated for 120 mins by fluorescence analysis
T3 sequence (Q9UBN7 whole entry): T1 sequence (whole entry)

[9] = Stability of compound in human liver microsomes assessed as remaining parent compound at 100 uM incubated after 60 mins by LC-MS/MS analysis; type: ADME, Microsome; conditions: read-out: Stability
[10] = target: Mothers against decapentaplegic homolog 2 (Homo sapiens) (UniProt Q15796); assay: Inhibition of TGF-beta1-induced Smad2 protein phosphorylation level in HELF cells incubated for 48 hrs by Western blot analysis; type: cell-based; conditions: dose 2.5-10 µM
Sequence of Mothers against decapentaplegic homolog 2 (Homo sapiens) (Q15796 whole entry): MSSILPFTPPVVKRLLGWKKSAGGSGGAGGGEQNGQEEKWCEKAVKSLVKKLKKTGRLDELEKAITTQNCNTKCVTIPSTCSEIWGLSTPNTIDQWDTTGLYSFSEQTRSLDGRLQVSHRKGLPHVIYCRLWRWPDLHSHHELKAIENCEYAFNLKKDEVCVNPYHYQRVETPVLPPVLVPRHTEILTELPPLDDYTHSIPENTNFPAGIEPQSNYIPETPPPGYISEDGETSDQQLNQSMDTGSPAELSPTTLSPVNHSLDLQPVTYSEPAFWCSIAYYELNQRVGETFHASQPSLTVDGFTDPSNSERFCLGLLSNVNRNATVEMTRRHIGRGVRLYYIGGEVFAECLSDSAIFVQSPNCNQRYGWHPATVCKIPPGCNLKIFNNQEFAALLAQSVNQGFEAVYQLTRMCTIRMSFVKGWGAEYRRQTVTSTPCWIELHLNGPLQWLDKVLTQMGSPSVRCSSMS

Histone deacetylase 2 = Histone deacetylase 2 (Homo sapiens, UniProt Q92769); assay: Inhibition of recombinant human full length HDAC2 using Boc-Lys (Ac)-AMC as substrate incubated for 120 mins by fluorescence analysis
Sequence of Histone deacetylase 2 (Q92769 whole entry): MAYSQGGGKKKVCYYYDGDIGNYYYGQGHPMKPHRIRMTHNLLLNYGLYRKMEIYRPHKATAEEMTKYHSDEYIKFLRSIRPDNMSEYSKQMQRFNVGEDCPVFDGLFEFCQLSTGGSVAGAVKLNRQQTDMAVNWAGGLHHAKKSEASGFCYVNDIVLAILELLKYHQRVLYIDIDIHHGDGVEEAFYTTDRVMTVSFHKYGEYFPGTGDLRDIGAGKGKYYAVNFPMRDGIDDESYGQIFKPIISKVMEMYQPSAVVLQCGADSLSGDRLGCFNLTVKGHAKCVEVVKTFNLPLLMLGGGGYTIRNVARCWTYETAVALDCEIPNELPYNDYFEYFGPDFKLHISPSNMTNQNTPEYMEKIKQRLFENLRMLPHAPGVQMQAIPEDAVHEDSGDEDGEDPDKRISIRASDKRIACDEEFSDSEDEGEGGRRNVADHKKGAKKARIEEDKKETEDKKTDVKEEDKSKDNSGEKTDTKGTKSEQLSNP

Homo sapiens = species: Homo sapiens; assay: Selectivity index, ratio IC50 for C-terminal His6/Flag-tagged recombinant human full length HDAC1 to IC50 for inhibition of recombinant human full length HDAC6
[11] = Half life in human liver microsomes at 100 uM by LC-MS/MS analysis; type: ADME, Microsome
Mus musculus [12] = assay: Anti-pulmonary fibrosis activity in bleomycin-induced ip dosed C57BL/6 mouse model of pulmonary fibrosis assessed as inhibition of alpha-SMA protein expression level in lung for 3 weeks by immunohistochemical analysis; type: functional, organism-based; conditions: dose 50-100 mg/kg
Histone deacetylase 4 = Histone deacetylase 4 (Homo sapiens, UniProt P56524); assay: Inhibition of recombinant human HDAC4 using Boc-Lys (Ac)-AMC as substrate incubated for 120 mins by fluorescence analysis
Sequence of Histone deacetylase 4 (P56524 whole entry): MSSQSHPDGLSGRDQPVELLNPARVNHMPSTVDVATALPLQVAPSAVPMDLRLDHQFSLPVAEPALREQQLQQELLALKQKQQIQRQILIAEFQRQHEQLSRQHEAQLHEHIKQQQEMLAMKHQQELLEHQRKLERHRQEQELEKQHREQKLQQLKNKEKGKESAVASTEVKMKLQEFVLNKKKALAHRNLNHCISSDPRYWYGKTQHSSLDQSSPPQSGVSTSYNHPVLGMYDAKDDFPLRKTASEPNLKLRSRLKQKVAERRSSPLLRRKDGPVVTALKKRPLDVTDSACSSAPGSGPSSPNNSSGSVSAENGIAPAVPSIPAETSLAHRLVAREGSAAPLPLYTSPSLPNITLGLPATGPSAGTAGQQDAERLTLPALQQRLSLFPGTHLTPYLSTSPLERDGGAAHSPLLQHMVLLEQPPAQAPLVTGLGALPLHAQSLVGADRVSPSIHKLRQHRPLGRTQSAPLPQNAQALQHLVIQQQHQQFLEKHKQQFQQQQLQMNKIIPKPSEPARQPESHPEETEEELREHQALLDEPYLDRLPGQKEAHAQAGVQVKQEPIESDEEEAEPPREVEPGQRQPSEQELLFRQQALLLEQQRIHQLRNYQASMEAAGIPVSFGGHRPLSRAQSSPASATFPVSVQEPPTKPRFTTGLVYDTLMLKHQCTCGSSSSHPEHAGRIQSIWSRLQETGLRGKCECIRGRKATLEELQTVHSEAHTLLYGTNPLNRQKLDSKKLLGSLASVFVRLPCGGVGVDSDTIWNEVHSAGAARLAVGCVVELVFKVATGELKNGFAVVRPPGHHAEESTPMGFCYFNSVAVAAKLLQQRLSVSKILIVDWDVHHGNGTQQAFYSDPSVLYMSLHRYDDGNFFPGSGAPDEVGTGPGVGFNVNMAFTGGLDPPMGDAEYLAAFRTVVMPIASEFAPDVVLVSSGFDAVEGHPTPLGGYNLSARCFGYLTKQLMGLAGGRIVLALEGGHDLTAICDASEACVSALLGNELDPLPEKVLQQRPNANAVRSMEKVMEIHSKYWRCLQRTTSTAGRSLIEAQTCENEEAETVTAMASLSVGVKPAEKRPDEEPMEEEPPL

- inhibition [2]: Dose-Dependent Effect
- inhibition [5]: Dose-Dependent Effect
- inhibition [6]: Dose-Dependent Effect
- microsomal CLint at 100 µM [7]: < 9.6 µL/min/mg
- pIC50 [8]: 8.05
- remaining at 1 h, 100 µM [9]: 77.4%
- inhibition [10]: Dose-Dependent Effect
- pIC50 (Histone deacetylase 2): 5.50
- Ratio IC50 (Homo sapiens): 97.9
- half-life at 100 µM [11]: > 2.42 h
- pIC50 (Histone deacetylase 4): 6.07
SMILES: CC(=O)O.O=C(NO)c1ccc(CN2C(=O)[C@@H]3CCCN3Cc3ccccc32)cc1
- Activity (Mus musculus [1]): Active
- Activity (Mus musculus [3]): Active
- Activity (Mus musculus [4]): Active
- Activity (HELF): Dose-Dependent Effect
- inhibition (Mus musculus [12]): Dose-Dependent Effect

Reference: ChEMBL document CHEMBL5584244, “Discovery of novel pyrrolo[2,1-c][1,4]benzodiazepine-3,11-dione (PBD) derivatives as selective HDAC6 inhibitors for the efficient treatment of idiopathic pulmonary fibrosis (IPF) in vitro and in vivo” (Eur J Med Chem, 2024)
